{"source": "patent US20230000899A1", "about": "“ALGINATE, POLYLYSINE, AND SEED PRESERVATIVE NUTRITIONAL PRODUCT AND DIGESTIVE AID” (Reflux Gourmet LLC, priority 2021, published 2023)", "origin": "cited, not measured here", "tested_on": "laboratory mice", "details": "certain laboratory mice; administered in high concentrations"}
{"smiles": "Oc1ccc(C=Cc2cc(O)cc(O)c2)cc1", "note": "[resveratrol]", "values": [{"measurement": "extension of life span", "result": "up to 50%"}]}
